Test results from US20220125983A1, “MALODOR COUNTERACTING COMPOSITION AND AGENT AND THE USE THEREOF” (CHEMCOM S.A., priority 2019, published 2022).

Assays:
[1] = tested on: perception of the earthy olfactory note; assay: Sensory test: expert panel rating of odor intensity of earthy compounds without and with nefopam (Tedlar bags); assay type: in vivo, human; details: for Odor intensity without Nefopam, note A: earthy: scale 0 (no odor) to 5 (saturating odor), resolution 0.5, panel of five assessors; for Odor intensity of Geosmin with nefopam enantiomer as blocker, note A: earthy / Odor intensity of Geosmin with nefopam enantiomer as blocker, note B: camphoreous: Geosmin + enantiomer free base
Experimental: The composition comprising nefopam was prepared by diluting racemic nefopam in its free base form in ethanol at a concentration of 107 mg/ml The test comprised in a first step, microinjecting the earthy compound, nefopam or earthy compound+nefopam in 20 L TedlarTM bags specially conceived for gas sampling, previously loaded with a known volume of pure air (from oil free compressor with additional charcoal filters). The earthy compounds were solubilized in ethanol at a suitable concentration (see table 2) and injected in the 20 L […] bag. The final concentration in the bag varied between 7 mg/m^3' to 383 mg/m^3, (table 2), depending on the odor strength of the compound while the concentration of nefopam in the bags was fixed at 54 mg/m^3. [table] The odor presentation device comprised a cylinder filled with clean air. The bag was inserted in the cylinder and connected to a sampling installation in the cylinder by means of a valve. By controlled injection of clean air into the cylinder, the interior pressure was raised and the sampling air was pressed in a controlled manner out of the sample container through the opened valve. This sampling air was transferred to the nose of the corresponding sensory odor panel member by means of a funnel. By this means, each sensory odor panel member received an identical sample with a standardized volume flow and a constant provision time. The outlet flow rate was between 10-20 L/min (in order to avoid any mixing with ambient air before reaching the nose). The expert panel of five assessors entered the room 15 minutes before starting the test. The basic standard test was a rating in intensity and the use of the closest chemical descriptors according to the following order of presentation: 1. earthy compound 2. Mix: earthy compound (at same concentrations as for 1)+Nefopam. Each assessor could smell for few seconds. A pause of minimum 1 minute was considered between presentations. The individual rating was done with a resolution of 0.5 on a scale ranging from 0 (no odor) to 5 (saturating odor). Both enantiomers of nefopam, (+)-nefopam and (-)-nefopam in their free base from obtained as described in examples 1 and 2, respectively, were assessed separately as blockers of the perception of the earthy note of geosmin, using the same procedure as described in example 3.

human nose = details: as low as; cited from earlier work
[2] = earthy compound alone in bag at Table 2 concentration
[3] = earthy compound alone in bag at Table 2 concentration, scale 0 to 5
[4] = 2-ethylfenchol 188 mg/m^3 + racemic nefopam free base 54 mg/m^3 in bag, scale 0 to 5
[5] = 2-methylisoborneol 150 mg/m^3 + racemic nefopam free base 54 mg/m^3 in bag, scale 0 to 5
[6] = Ambrinol R 29 mg/m^3 + racemic nefopam free base 54 mg/m^3 in bag, scale 0 to 5
[7] = Ambrinol S 26 mg/m^3 + racemic nefopam free base 54 mg/m^3 in bag, scale 0 to 5
[8] = Ambrinol racemic 25 mg/m^3 + racemic nefopam free base 54 mg/m^3 in bag, scale 0 to 5
[9] = Geosmin 19 mg/m^3 + racemic nefopam free base 54 mg/m^3 in bag, scale 0 to 5
[10] = Huminol 11 mg/m^3 + racemic nefopam free base 54 mg/m^3 in bag, scale 0 to 5
[11] = Methyl geosmin 7 mg/m^3 + racemic nefopam free base 54 mg/m^3 in bag, scale 0 to 5
[12] = Patchouli oil 383 mg/m^3 + racemic nefopam free base 54 mg/m^3 in bag, scale 0 to 5
[13] = earthy compounds of Table 3, nefopam 54 mg/m^3
[14] = Example 4, same procedure as example 3, scale 0 to 5
[15] = Example 4, Geosmin alone, same procedure as example 3, scale 0 to 5

**Q.** With `CC1(O)CCC2C(=CCCC2(C)C)C1` (racemic) [Ambrinol racemic, 2,5,5-trimethyl-1,3,4,4a,6,7-hexahydronaphthalen-2-ol] as the compound, how does the “Odor intensity without Nefopam, note A: earthy” value [1, 2] read?
**A.** 1.5

**Q.** And the “Odor intensity without Nefopam, note B: α-pinene” value [1, 3]?
**A.** 2.5

**Q.** For `CN1CCOC(c2ccccc2)c2ccccc2C1` (racemic) [Nefopam, (RS)-5-methyl-1-phenyl-1,3,4,6-tetrahydro-2,5-benzoxazocine], which “Odor intensity with Nefopam, 2-ethylfenchol note A: earthy” value [1, 4] is on record?
**A.** 0

**Q.** And the “Odor intensity with Nefopam, 2-ethylfenchol note B: camphoreous” value [1, 4]?
**A.** 3

**Q.** What about the “Odor intensity with Nefopam, 2-methylisoborneol note A: earthy” value [1, 5] of the same compound?
**A.** 0

**Q.** What about the “Odor intensity with Nefopam, 2-methylisoborneol note B: camphoreous” value [1, 5] of the same compound?
**A.** 2.5

**Q.** And the “Odor intensity with Nefopam, Ambrinol R note A: earthy” value [1, 6]?
**A.** 0.5

**Q.** What about the “Odor intensity with Nefopam, Ambrinol R note B: scatole” value [1, 6] of the same compound?
**A.** 3.5

**Q.** And the “Odor intensity with Nefopam, Ambrinol S note A: earthy” value [1, 7]?
**A.** 0.5

**Q.** What about the “Odor intensity with Nefopam, Ambrinol S note B: vetivert” value [1, 7] of the same compound?
**A.** 2

**Q.** And the “Odor intensity with Nefopam, Ambrinol racemic note A: earthy” value [1, 8]?
**A.** 0

**Q.** And the “Odor intensity with Nefopam, Ambrinol racemic note B: α-pinene” value [1, 8]?
**A.** 2.5

**Q.** What about the “Odor intensity with Nefopam, Geosmin note A: earthy” value [1, 9] of the same compound?
**A.** 1

**Q.** What about the “Odor intensity with Nefopam, Geosmin note B: camphoreous” value [1, 9] of the same compound?
**A.** 2.5

**Q.** What about the “Odor intensity with Nefopam, Huminol note A: earthy” value [1, 10] of the same compound?
**A.** 1

**Q.** And the “Odor intensity with Nefopam, Huminol note B: camphoreous” value [1, 10]?
**A.** 2

**Q.** And the “Odor intensity with Nefopam, Methyl Geosmin note A: earthy” value [1, 11]?
**A.** 0.5

**Q.** And the “Odor intensity with Nefopam, Methyl Geosmin note B: α-pinene” value [1, 11]?
**A.** 1.5

**Q.** What about the “Odor intensity with Nefopam, Patchouli Oil note A: earthy” value [1, 12] of the same compound?
**A.** 0.5

**Q.** And the “Odor intensity with Nefopam, Patchouli Oil note B: α-pinene” value [1, 12]?
**A.** 2.5

**Q.** What about the “Intensity of the other olfactory notes associated to the different compounds in the presence of racemic nefopam” value [1, 13] of the same compound?
**A.** not significantly decreased

**Q.** What about the “Typical earthy olfactory note associated with the tested compounds when smelled in the presence of racemic nefopam” value [1, 13] of the same compound?
**A.** strongly reduced

**Q.** For `CCC1(O)C2(C)CCC(C2)C1(C)C` (centres unmarked) [2-ethylfenchol, 6-ethyl-1,5,5-trimethylbicyclo[2.2.1]heptan-6-ol], which “Odor intensity without Nefopam, note A: earthy” value [1, 2] is on record?
**A.** 3

**Q.** And the “Odor intensity without Nefopam, note B: camphoreous” value [1, 3]?
**A.** 3.5

**Q.** What does the source list for `CC1(O)CC2CCC1(C)C2(C)C` (centres unmarked) [2-methylisoborneol, 1,2,7,7-Tetramethylbicyclo[2.2.1]heptan-2-ol]?
**A.** Detection threshold (human nose) (human nose): 25 ng/L; Odor intensity without Nefopam, note A: earthy [1, 2]: 3; Odor intensity without Nefopam, note B: camphoreous [1, 3]: 0

**Q.** Which “Odor intensity of Geosmin with nefopam enantiomer as blocker, note A: earthy” value [1, 14] does the source give for `CN1CCO[C@@H](c2ccccc2)c2ccccc2C1` [(+)-Nefopam, (S)-5-methyl-1-phenyl-1,3,4,6-tetrahydro-2,5-benzoxazocine] here?
**A.** 3

**Q.** And the “Odor intensity of Geosmin with nefopam enantiomer as blocker, note B: camphoreous” value [1, 14]?
**A.** 3

**Q.** Which “Odor intensity of Geosmin with nefopam enantiomer as blocker, note A: earthy” value [1, 14] does the source give for `CN1CCO[C@H](c2ccccc2)c2ccccc2C1` [(−)-Nefopam, (R)-5-methyl-1-phenyl-1,3,4,6-tetrahydro-2,5-benzoxazocine] here?
**A.** 0

**Q.** What about the “Odor intensity of Geosmin with nefopam enantiomer as blocker, note B: camphoreous” value [1, 14] of the same compound?
**A.** 3

**Q.** Which results are given for `CC1(C)CCC=C2C[C@@](C)(O)CC[C@H]21` [Ambrinol R, (2S, 4aS)-(−)-2,5,5-Trimethyl-1,2,3,4,4a,5,6,7-octahydro-naphthalen-2-ol]?
**A.** Odor intensity without Nefopam, note A: earthy [1, 2]: 1; Odor intensity without Nefopam, note B: scatole [1, 3]: 3.5

**Q.** With `CC1(C)CCC=C2C[C@](C)(O)CC[C@@H]21` [Ambrinol S, (2R, 4aR)-(+)-2,5,5-Trimethyl-1,2,3,4,4a,5,6,7-octahydro-naphthalen-2-ol] as the compound, how does the “Odor intensity without Nefopam, note A: earthy” value [1, 2] read?
**A.** 2.5

**Q.** What about the “Odor intensity without Nefopam, note B: vetivert” value [1, 3] of the same compound?
**A.** 1.5

**Q.** Which “Detection threshold (human nose)” value (human nose) does the source give for `CC1CCCC2(C)CCCCC12O` (centres unmarked) [Geosmin, 4,8a-dimethyl-1,2,3,4,5,6,7,8-octahydronaphthalen-4a-ol] here?
**A.** 10 ng/L

**Q.** And the “Odor intensity without blocker, note A: earthy” value [1, 15]?
**A.** 3

**Q.** And the “Odor intensity without blocker, note B: camphoreous” value [1, 15]?
**A.** 3

**Q.** And the “Odor intensity without Nefopam, note A: earthy” value [1, 2]?
**A.** 3

**Q.** What about the “Odor intensity without Nefopam, note B: camphoreous” value [1, 3] of the same compound?
**A.** 3

**Q.** For `CCC1(O)C2(C)CCCC1(C)CC2` (centres unmarked) [Huminol, 8-ethyl-1,5-dimethylbicyclo[3.2.1]octan-8-ol], which “Odor intensity without Nefopam, note A: earthy” value [1, 2] is on record?
**A.** 2.5

**Q.** And the “Odor intensity without Nefopam, note B: camphoreous” value [1, 3]?
**A.** 2.5

**Q.** Which results are given for `CC1(C)CCCC2(C)CCCCC12O` (centres unmarked) [Methyl Geosmin, 4,4,8a-trimethyl-1,2,3,4,5,6,7,8-octahydronaphthalen-4a-ol]?
**A.** Odor intensity without Nefopam, note A: earthy [1, 2]: 2.5; Odor intensity without Nefopam, note B: α-pinene [1, 3]: 1.5
